Reference: patent publication US8822517B2, “Arylosulfonamides for the treatment of CNS diseases” (Adamed SP. Z O.O., priority 2010, dated 2014)

What was measured:
[1] = biological target: serotoninergic 5-HT6 receptor (Homo sapiens, UniProt P50406); assay: Binding assay 5-HT6 (h), [3H]LSD, CHO cells; parameters: expressed in transfected cells; host or cells: CHO cells; details: read-out: 5-HT6
Outline: (§1)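 Detection relied on scintillation counting of bound ligand. Compounds at 1×10^−6 M were evaluated against specific binding, i.e. total binding corrected for the nonspecific fraction seen with excess unlabelled ligand.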

[2] = biological target: dopaminergic D3 receptor (Homo sapiens, UniProt P35462); assay: Binding assay D3 (h), [3H]methyl-spiperone, CHO cells; parameters: expressed in transfected cells; host or cells: CHO cells; details: read-out: D3 [%]
Sequence of dopaminergic D3 receptor (P35462 whole entry): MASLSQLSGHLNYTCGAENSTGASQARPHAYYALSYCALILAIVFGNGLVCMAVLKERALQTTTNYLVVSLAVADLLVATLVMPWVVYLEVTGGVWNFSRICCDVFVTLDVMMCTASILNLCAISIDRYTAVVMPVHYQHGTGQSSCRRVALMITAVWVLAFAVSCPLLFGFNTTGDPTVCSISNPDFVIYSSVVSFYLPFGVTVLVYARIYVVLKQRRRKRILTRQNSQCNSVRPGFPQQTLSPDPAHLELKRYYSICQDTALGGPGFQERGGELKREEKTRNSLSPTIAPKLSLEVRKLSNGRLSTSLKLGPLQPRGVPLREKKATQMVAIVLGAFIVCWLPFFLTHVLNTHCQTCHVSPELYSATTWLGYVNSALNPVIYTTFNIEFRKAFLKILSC
Outline: as §1

[3] = biological target: T1, serotonine transporter (SERT) receptor (Homo sapiens, UniProt P31645); assay: Binding assay SERT (h), [3H]imipramine, CHO cells; details: read-out: SERT [%]
T1 construct: expressed in transfected cells; host or cells: CHO cells
T1 sequence (P31645 whole entry): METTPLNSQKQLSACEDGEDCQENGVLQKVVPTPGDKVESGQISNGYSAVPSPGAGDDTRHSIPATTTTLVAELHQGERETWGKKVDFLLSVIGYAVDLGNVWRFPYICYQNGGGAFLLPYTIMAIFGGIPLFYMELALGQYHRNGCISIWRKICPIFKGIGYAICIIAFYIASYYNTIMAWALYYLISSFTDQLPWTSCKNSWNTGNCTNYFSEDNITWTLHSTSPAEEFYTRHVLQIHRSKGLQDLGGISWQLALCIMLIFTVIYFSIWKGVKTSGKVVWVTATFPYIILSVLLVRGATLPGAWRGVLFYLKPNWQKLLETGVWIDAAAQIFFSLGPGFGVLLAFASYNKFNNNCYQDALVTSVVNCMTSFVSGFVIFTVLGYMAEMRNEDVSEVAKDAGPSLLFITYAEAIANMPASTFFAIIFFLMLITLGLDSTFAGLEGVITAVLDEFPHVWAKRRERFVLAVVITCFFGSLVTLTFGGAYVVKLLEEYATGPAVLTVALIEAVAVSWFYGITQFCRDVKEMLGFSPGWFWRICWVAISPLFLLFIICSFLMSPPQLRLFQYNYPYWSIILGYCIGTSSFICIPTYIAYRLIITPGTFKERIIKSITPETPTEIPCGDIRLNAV
Outline: as §1

[4] = biological target: T2, serotoninergic 5-HT1A receptor (Homo sapiens, UniProt P08908); assay: Binding assay 5-HT1A (h), [3H]8-OH-DPAT, HEK-293 cells; parameters: expressed in transfected cells; host or cells: HEK-293 cells; details: read-out: 5-HT1A
T2 sequence (P08908 1-422): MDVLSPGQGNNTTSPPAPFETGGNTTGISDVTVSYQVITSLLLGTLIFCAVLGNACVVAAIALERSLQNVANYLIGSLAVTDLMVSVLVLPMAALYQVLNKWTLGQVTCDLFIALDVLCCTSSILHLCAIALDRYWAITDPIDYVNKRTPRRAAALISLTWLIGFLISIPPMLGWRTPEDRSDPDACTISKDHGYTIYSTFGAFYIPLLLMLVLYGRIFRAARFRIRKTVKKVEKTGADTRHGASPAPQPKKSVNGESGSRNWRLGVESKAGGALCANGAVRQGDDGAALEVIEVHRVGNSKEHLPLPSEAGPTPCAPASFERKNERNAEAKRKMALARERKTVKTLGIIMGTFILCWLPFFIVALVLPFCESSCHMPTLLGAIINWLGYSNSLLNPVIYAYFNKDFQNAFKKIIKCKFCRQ
Outline: as §1

[5] = tested on: adrenergic α1 receptor; assay: Binding assay α1 (non-selective), [3H]prazosin, rat cerebral cortex; details: percent inhibition of control specific binding; compounds tested at 1×10^−6 M
Outline: as §1

[6] = biological target: serotoninergic 5-HT2A receptor (Homo sapiens, UniProt P28223); assay: Binding assay 5-HT2A (h), [3H]ketanserin, HEK-293 cells; parameters: expressed in transfected cells; host or cells: HEK-293 cells; details: read-out: 5-HT2A
Sequence of serotoninergic 5-HT2A receptor (P28223 whole entry): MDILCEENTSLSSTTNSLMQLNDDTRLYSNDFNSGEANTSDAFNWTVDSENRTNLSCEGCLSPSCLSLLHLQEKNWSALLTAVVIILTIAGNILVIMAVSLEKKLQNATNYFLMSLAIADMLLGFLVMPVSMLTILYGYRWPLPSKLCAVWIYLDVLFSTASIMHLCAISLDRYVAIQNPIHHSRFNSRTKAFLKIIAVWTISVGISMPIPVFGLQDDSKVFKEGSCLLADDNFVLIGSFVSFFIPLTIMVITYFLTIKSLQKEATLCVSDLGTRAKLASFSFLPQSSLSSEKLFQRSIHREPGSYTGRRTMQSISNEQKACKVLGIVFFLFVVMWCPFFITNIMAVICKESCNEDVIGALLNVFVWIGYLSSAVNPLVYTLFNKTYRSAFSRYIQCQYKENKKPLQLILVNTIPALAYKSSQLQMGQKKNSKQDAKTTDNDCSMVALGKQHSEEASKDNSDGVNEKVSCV
Outline: as §1

[7] = biological target: serotoninergic 5-HT7 receptor (Homo sapiens, UniProt P34969); assay: Binding assay 5-HT7 (h), [3H]LSD, CHO cells; parameters: expressed in transfected cells; host or cells: CHO cells; details: read-out: 5-HT7
Sequence of serotoninergic 5-HT7 receptor (P34969 whole entry): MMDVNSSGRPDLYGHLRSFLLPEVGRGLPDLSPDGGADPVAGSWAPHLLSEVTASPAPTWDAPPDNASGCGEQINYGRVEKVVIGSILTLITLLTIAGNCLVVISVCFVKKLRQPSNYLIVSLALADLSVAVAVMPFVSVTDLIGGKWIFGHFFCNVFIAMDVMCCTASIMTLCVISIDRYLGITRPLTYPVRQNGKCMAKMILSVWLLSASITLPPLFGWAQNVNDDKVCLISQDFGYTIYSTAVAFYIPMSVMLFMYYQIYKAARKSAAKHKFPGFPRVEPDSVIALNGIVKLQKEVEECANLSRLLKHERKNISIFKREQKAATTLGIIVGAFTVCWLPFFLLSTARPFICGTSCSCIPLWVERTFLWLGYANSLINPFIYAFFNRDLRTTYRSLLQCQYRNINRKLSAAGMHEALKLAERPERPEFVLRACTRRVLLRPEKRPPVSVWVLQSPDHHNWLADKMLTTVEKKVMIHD
Outline: as §1

[8] = biological target: dopaminergic D2 receptor (Homo sapiens, UniProt P14416); assay: Binding assay D2S (h), [3H]methyl-spiperone, HEK-293 cells; parameters: expressed in transfected cells; host or cells: HEK-293 cells; details: read-out: D2 [%]
Sequence of dopaminergic D2 receptor (P14416 1-414 isoform P14416-2): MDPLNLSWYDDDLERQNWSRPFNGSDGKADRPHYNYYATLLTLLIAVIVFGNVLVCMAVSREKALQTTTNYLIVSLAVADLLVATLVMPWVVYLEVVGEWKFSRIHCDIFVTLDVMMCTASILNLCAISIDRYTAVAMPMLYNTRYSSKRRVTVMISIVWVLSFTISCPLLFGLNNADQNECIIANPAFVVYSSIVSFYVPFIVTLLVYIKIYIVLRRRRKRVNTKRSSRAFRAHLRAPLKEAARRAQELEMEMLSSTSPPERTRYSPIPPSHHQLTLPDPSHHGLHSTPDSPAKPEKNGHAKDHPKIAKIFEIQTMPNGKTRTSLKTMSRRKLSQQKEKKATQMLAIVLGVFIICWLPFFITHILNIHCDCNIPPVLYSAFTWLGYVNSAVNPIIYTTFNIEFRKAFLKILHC
Outline: as §1

Sequence of serotoninergic 5-HT6 receptor (P50406 whole entry): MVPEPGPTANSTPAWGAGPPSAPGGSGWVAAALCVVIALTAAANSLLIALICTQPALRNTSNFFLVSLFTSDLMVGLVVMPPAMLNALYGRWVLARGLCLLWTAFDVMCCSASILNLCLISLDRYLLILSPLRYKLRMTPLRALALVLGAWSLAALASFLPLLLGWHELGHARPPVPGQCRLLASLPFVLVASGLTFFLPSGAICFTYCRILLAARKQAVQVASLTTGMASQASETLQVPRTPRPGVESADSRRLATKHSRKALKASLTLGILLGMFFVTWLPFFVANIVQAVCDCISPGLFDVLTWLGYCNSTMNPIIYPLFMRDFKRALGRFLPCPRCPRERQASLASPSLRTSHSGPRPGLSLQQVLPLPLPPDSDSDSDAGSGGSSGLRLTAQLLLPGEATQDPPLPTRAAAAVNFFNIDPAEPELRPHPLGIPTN

Compound	inhibition at 1 µM [1] [%]	inhibition at 1 µM [2] [%]	inhibition at 1 µM [3] [%]	inhibition at 1 µM [4] [%]	α1 [%] [5] [%]	inhibition at 1 µM [6] [%]	inhibition at 1 µM [7] [%]	inhibition at 1 µM [8] [%]
O=S(=O)(NCCCN1CCN(c2cccc3c2OCCO3)CC1)c1ccc2ccccc2c1 [Compound 406, N-[3-[4-(2,3-Dihydro-1,4-benzodioxin-5-yl)piperazin-1-yl]propyl]naphthalene-2-sulphonamide]	54	54	10	99	77	28	92	59
O=S(=O)(NCCCN1CCN(c2nsc3ccccc23)CC1)c1cccc(F)c1 [Compound 72, N-[3-[4-(1,2-Benzothiazol-3-yl)piperazin-1-yl]propyl]-3-fluorobenzenesulphonamide]	78	95	44	95	93	94	101	99
O=S(=O)(NCCCN1CCN(c2cccc3c2OCCO3)CC1)c1cccc2ccccc12 [Compound 405, N-[3-[4-(2,3-Dihydro-1,4-benzodioxin-5-yl)piperazin-1-yl]propyl]naphthalene-1-sulphonamide]	53	62	-5	97	82	74	93	68
O=S(=O)(NCCCCN1CCN(c2nsc3ccccc23)CC1)c1ccc2c(c1)CCO2 [Compound 242, N-[4-[4-(1,2-Benzothiazol-3-yl)piperazin-1-yl]butyl]-2,3-dihydrobenzofuran-5-sulphonamide]	73	89	12	92	98	94	101	105
O=S(=O)(NCCCCN1CCN(c2cccc3c2OCCO3)CC1)c1cccc(O)c1 [Compound 393, N-[4-[4-(2,3-Dihydro-1,4-benzodioxin-5-yl)piperazin-1-yl]butyl]-3-hydroxybenzenesulphonamide]	9	92	-7	93	91	47	91	46
O=S(=O)(NCCCCN1CCN(c2nsc3ccccc23)CC1)c1cccc(F)c1 [Compound 71, N-[4-[4-(1,2-Benzothiazol-3-yl)piperazin-1-yl]butyl]-3-fluorobenzenesulphonamide]	76	91	41	89	99	94	99	103
O=S(=O)(NCCCCN1CCN(c2noc3ccccc23)CC1)c1ccc(Br)cc1 [Compound 274, N-[4-[4-(1,2-Benzoxazol-3-yl)piperazin-1-yl]butyl]-4-bromobenzenesulphonamide]	81	91	30	73	99	97	83	96
O=S(=O)(NCCCCN1CCC(c2noc3cc(F)ccc23)CC1)c1ccc(Cl)c(Cl)c1 [Compound 297, 3,4-Dichloro-N-[4-[4-(6-fluoro-1,2-benzoxazol-3-yl)piperidin-1-yl]butyl]benzenesulphonamide]	87	100	23	31	100	95	88	93
Cc1[nH]c2ccc(Cl)cc2c1C1=CCN(CCCNS(=O)(=O)c2ccc(F)cc2)CC1 [Compound 443, N-[3-[4-(5-Chloro-2-methyl-1H-indol-3-yl)-3,6-dihydro-2H-pyridin-1-yl]propyl]-4-fluorobenzenesulphonamide]	92	71	-9	59	41	67	54	22
Cc1[nH]c2ccc(Cl)cc2c1C1=CCN(CCCCNS(=O)(=O)c2cccc(O)c2)CC1 [Compound 369, N-[4-[4-(5-Chloro-2-methyl-1H-indol-3-yl)-3,6-dihydro-2H-pyridin-1-yl]butyl]-3-hydroxybenzenesulphonamide]	99	97	29	62	50	79	7	67
N#Cc1cccc(S(=O)(=O)NCCCCN2CCN(c3cccc4[nH]ccc34)CC2)c1 [Compound 362, 3-Cyano-N-[4-[4-(1H-indol-4-yl)piperazin-1-yl]butyl]benzenesulphonamide]	69	102	37	91	96	41	88	101
O=S(=O)(NCCCN1CCN(c2cccc3c2OCCO3)CC1)c1ccc(-c2ccccc2)cc1 [Compound 415, N-[3-[4-(2,3-Dihydro-1,4-benzodioxin-5-yl)piperazin-1-yl]propyl]-4-phenylbenzenesulphonamide]	15	76	-5	96	78	25	92	58
O=S(=O)(NCCCCN1CCC(c2noc3cc(F)ccc23)CC1)c1ccc(Cl)cc1 [Compound 296, 4-Chloro-N-[4-[4-(6-fluoro-1,2-benzoxazol-3-yl)piperidin-1-yl]butyl]benzenesulphonamide]	83	100	49	34	101	93	91	105
O=S(=O)(NCCCCN1CCN(c2nsc3ccccc23)CC1)c1ccc(Br)cc1 [Compound 229, N-[4-[4-(1,2-Benzothiazol-3-yl)piperazin-1-yl]butyl]-4-bromobenzenesulphonamide]	75	95	9	92	96	80	89	101
O=S(=O)(NCCCN1CCC(c2noc3cc(F)ccc23)CC1)c1cccc2scnc12 [Compound 351, N-[3-[4-(6-Fluoro-1,2-benzoxazol-3-yl)piperidin-1-yl]propyl]-1,3-benzothiazole-4-sulphonamide]	89	103	31	71	97	103	94	101
